Laboratory results: US12466813B2, “PRC1 inhibitors and methods of treatment therewith” (The Regents of the University of Michigan, priority 2018, dated 2025)

Legend:
RING1B-BMI1 = target: T1, RING1B-BMI1 (Homo sapiens, UniProt Q99496); experiment: KD classes of Table A (direct binding to Ring1B-Bmi1); conditions: class given in Table A
T1 sequence (Q99496 1-336): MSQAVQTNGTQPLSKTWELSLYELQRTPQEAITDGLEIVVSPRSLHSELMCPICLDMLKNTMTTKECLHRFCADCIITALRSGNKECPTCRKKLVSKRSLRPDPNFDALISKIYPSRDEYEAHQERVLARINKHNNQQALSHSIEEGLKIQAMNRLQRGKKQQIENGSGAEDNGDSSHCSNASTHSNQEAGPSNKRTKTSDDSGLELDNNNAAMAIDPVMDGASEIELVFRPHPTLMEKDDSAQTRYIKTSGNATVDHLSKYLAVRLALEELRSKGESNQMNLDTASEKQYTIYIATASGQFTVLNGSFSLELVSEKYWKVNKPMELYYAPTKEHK
T1 sequence (P35226 1-326 partner): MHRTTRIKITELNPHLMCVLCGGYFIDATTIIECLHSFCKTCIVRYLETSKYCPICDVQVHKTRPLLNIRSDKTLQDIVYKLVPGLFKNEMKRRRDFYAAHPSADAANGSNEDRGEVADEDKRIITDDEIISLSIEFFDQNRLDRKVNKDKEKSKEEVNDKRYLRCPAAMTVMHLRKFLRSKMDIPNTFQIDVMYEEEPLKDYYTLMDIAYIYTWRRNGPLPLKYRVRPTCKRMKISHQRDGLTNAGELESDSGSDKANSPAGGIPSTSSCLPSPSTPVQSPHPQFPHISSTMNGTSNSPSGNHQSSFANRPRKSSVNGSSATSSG

TEX cells = experiment: Differentiation and CD34 marker of TEX cells; assay type: cell-based; conditions: FIG. 4
Procedure: FIGS. 4A-F. COMPOUND 1 inhibits PRC1 in TEX cells. FIG. 4A. Inhibition of H2Aub in TEX cells. FIG. 4B. Differentiation of TEX cells upon treatment with COMPOUND 1. […] FIG. 4C. GSEA analysis of TEX cells showing revers of stem cell signature. FIG. 4D. […] FIG. 4E. Gene expression changes upon treatment with COMPOUND 1. FIG. 4F.
Experiments were conducted during development of embodiments herein to develop small molecule inhibitors of PRC1 by targeting the Ring1B-BMI1 E3 ligase. These compounds bind directly to Ring1B-Bmi1 with low-micromolar affinity and inhibit PRC1 in vitro and in cells. […] Experiments were conducted during development of embodiments herein to test COMPOUND 1 in leukemia stem cell models represented by TEX cells (Ref. 22; herein incorporated by reference in its entirety) and M9-ENL1 cells (Ref. 23; herein incorporated by reference in its entirety). […] In some embodiments, COMPOUND 1 and COMPOUND 1 analogs are find use as agents in targeting leukemia and other cancer stem cells.

Structure (SMILES)	Kd (RING1B-BMI1)	differentiation of TEX cells (TEX cells)
CCc1c(-c2cccc3c2ccn3CCO)[nH]c(C(=O)O)c1-c1ccc(OC)cc1Cl [COMPOUND 103]	> 100 µM	does not induce differentiation
CC(C)c1c(-c2cc(F)cc3[nH]ccc23)[nH]c(C(=O)O)c1-c1cc(OC2CCCC2)cc2[nH]ccc12 [compound 234]	< 20 µM	
CC(C)c1c(-c2cc(F)cc3[nH]ccc23)[nH]c(C(=O)O)c1-c1cc(OC2CCC2)cc2[nH]ccc12 [compound 235]	< 20 µM	
CC(C)c1c(-c2cc(F)cc3[nH]ccc23)[nH]c(C(=O)O)c1-c1cc(OC2COC2)cc2[nH]ccc12 [compound 236]	< 20 µM	
CSCc1ccc2[nH]ccc2c1-c1c(C(=O)O)[nH]c(-c2cc(F)cc3[nH]ccc23)c1C(C)C [compound 238]	< 20 µM	
CNCc1ccc2[nH]ccc2c1-c1c(C(=O)O)[nH]c(-c2cc(F)cc3[nH]ccc23)c1C(C)C [compound 239]	< 20 µM	
CC(C)c1c(-c2cc(F)cc3[nH]ccc23)[nH]c(C(=O)O)c1-c1c(Cl)cnc2[nH]ccc12 [compound 245]	< 20 µM	
CC(C)c1c(-c2cc(F)cc3[nH]ccc23)[nH]c(C(=O)O)c1-c1c(F)cnc2[nH]ccc12 [compound 246]	< 20 µM	
COc1cnc2[nH]ccc2c1-c1c(C(=O)O)[nH]c(-c2cc(F)cc3[nH]ccc23)c1C(C)C [compound 247]	< 20 µM	
CC(C)c1c(-c2cc(F)cc3[nH]ccc23)[nH]c(C(=O)O)c1-c1c(C(F)(F)F)cnc2[nH]ccc12 [compound 248]	< 20 µM	
CC(C)c1c(-c2cc(F)cc3[nH]ccc23)[nH]c(C(=O)O)c1-c1ccnc2[nH]c(C3=CCN(S(C)(=O)=O)CC3)cc12 [compound 256]	< 20 µM	
CC(C)c1c(-c2cc(F)cc3[nH]ccc23)[nH]c(C(=O)O)c1-c1ccnc2[nH]c(C3=CCN(S(=O)(=O)N(C)C)CC3)cc12 [compound 257]	< 20 µM	
CC(C)c1c(-c2cccc3[nH]ccc23)c(C(=O)O)n2c1-c1cc(F)cc3ccn(c13)CC2 [compound 270]	< 20 µM	
CC(C)c1c(-c2cccc3[nH]ccc23)c(C(=O)O)n2c1-c1cc(F)cc3ccn(c13)[C@@H](C)C2 [compound 271]	< 20 µM	
CC(C)c1c(-c2cccc3[nH]ccc23)c(C(=O)O)n2c1-c1cc(F)cc3ccn(c13)[C@H](C)C2 [compound 272]	< 20 µM	
CC(C)c1c(-c2cccc3[nH]ccc23)c(C(=O)O)n2c1-c1cc(F)cc3ccn(c13)S(=O)(=O)C2 [compound 273]	< 20 µM	
CC(C)c1c(-c2cccc3[nH]ccc23)c(C(=O)O)n2c1-c1cc(F)cc3ccn(c13)C(=O)C2 [compound 274]	< 20 µM	

Second part, led by results:

Kd (RING1B-BMI1)	Structure (SMILES)	differentiation of TEX cells (TEX cells)
< 20 µM	COCc1ccc2[nH]ccc2c1-c1c(C(=O)O)[nH]c(-c2cc(F)cc3[nH]ccc23)c1C(C)C [compound 237]	
< 20 µM	CCNc1ccc2[nH]ccc2c1-c1c(C(=O)O)[nH]c(-c2cc(F)cc3[nH]ccc23)c1C(C)C [compound 240]	
< 20 µM	Cc1ccc2[nH]ccc2c1-c1c(C(=O)O)[nH]c(-c2cc(F)cc3[nH]ccc23)c1C(C)C [compound 241]	
< 20 µM	CCc1ccc2[nH]ccc2c1-c1c(C(=O)O)[nH]c(-c2cc(F)cc3[nH]ccc23)c1C(C)C [compound 242]	
< 20 µM	CC(C)c1c(-c2cc(F)cc3[nH]ccc23)[nH]c(C(=O)O)c1-c1c(F)ccc2[nH]ccc12 [compound 243]	
< 20 µM	COc1ccc2[nH]ccc2c1-c1c(C(=O)O)[nH]c(-c2cc(F)cc3[nH]ccc23)c1C(C)C [compound 244]	
< 20 µM	CC(C)c1c(-c2cc(F)cc3[nH]ccc23)[nH]c(C(=O)O)c1-c1ccnc2[nH]c(-c3cc[nH]n3)cc12 [compound 249]	
< 20 µM	CC(C)c1c(-c2cc(F)cc3[nH]ccc23)[nH]c(C(=O)O)c1-c1ccnc2[nH]c(-c3ccsc3)cc12 [compound 250]	
< 20 µM	CC(C)c1c(-c2cc(F)cc3[nH]ccc23)[nH]c(C(=O)O)c1-c1ccnc2[nH]c(-c3ccccc3)cc12 [compound 251]	
< 20 µM	COc1ccc(-c2cc3c(-c4c(C(=O)O)[nH]c(-c5cc(F)cc6[nH]ccc56)c4C(C)C)ccnc3[nH]2)cc1 [compound 252]	
< 20 µM	CC(C)c1c(-c2cc(F)cc3[nH]ccc23)[nH]c(C(=O)O)c1-c1ccnc2[nH]c(-c3cccc(Cl)c3)cc12 [compound 253]	
< 20 µM	CC(C)c1c(-c2cc(F)cc3[nH]ccc23)[nH]c(C(=O)O)c1-c1ccnc2[nH]c(-c3ccccc3Cl)cc12 [compound 254]	
< 20 µM	CC(C)c1c(-c2cc(F)cc3[nH]ccc23)[nH]c(C(=O)O)c1-c1ccnc2[nH]c(C3=CCNCC3)cc12 [compound 255]	
< 20 µM	CC(C)c1c(-c2cc(F)cc3[nH]ccc23)[nH]c(C(=O)O)c1-c1cccc2[nH]c(-c3cc[nH]n3)cc12 [compound 258]	
< 20 µM	CC(C)c1c(-c2cc(F)cc3[nH]ccc23)[nH]c(C(=O)O)c1-c1cccc2[nH]c(-c3ccccc3)cc12 [compound 259]	
< 20 µM	CC(C)c1c(-c2cc(F)cc3[nH]ccc23)[nH]c(C(=O)O)c1-c1cccc2[nH]c(C(=O)Nc3ccccc3)cc12 [compound 260]	
< 20 µM	CC(C)c1c(-c2cc(F)cc3[nH]ccc23)[nH]c(C(=O)O)c1-c1cccc2[nH]c(C(=O)Nc3nccs3)cc12 [compound 261]	
< 20 µM	CC(C)c1c(-c2cc(F)cc3[nH]ccc23)[nH]c(C(=O)O)c1-c1cccc2[nH]c(C(=O)NCc3nccs3)cc12 [compound 262]	
< 20 µM	CC(C)c1c(-c2cc(F)cc3[nH]ccc23)[nH]c(C(=O)O)c1-c1cccc2c1ccn2CS(N)(=O)=O [compound 263]	
< 20 µM	CC(C)c1c(-c2cc(F)cc3[nH]ccc23)[nH]c(C(=O)O)c1-c1cccc2c1ccn2CS(C)(=O)=O [compound 264]	
< 20 µM	CC(C)c1c(-c2cc(F)cc3[nH]ccc23)[nH]c(C(=O)O)c1-c1cccc2c1ccn2CCNS(C)(=O)=O [compound 265]	
< 20 µM	CC(C)c1c(-c2cc(F)cc3[nH]ccc23)[nH]c(C(=O)O)c1-c1cccc2c1ccn2CCS(N)(=O)=O [compound 266]	
< 20 µM	CC(C)c1c(-c2cc(F)cc3[nH]ccc23)[nH]c(C(=O)O)c1-c1cccc2c1ccn2CCS(C)(=O)=O [compound 267]	
< 20 µM	CC(C)c1c(-c2cc(F)cc3[nH]ccc23)[nH]c(C(=O)O)c1-c1cccc2ncccc12 [compound 268]	
< 20 µM	CC(C)c1c(-c2cc(F)cc3[nH]ccc23)[nH]c(C(=O)O)c1-c1c2cc[nH]c2cc2[nH]ccc12 [compound 269]	
